# Laboratory results published in PubChem BioAssay (NCI).
#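 Five concentrations, 48 hours, 96-well plates. TGI marks complete inhibition of growth.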
# Assays:
# Experiment in all cases: NCI-60 cell line screen, 48 h
# A498 renal = tested on: A498 renal
# A549 NSCLC = tested on: A549 NSCLC
# CCRF-CEM leukemia = tested on: CCRF-CEM leukemia
# HCT-15 colon = tested on: HCT-15 colon
# IGROV1 ovarian = tested on: IGROV1 ovarian
# M14 melanoma = tested on: M14 melanoma
# NCI-H23 lung = tested on: NCI-H23 lung
# OVCAR-8 ovarian = tested on: OVCAR-8 ovarian
# SF-539 CNS = tested on: SF-539 CNS
# SNB-75 CNS = tested on: SNB-75 CNS
# SR leukemia = tested on: SR leukemia
# SW-620 colon = tested on: SW-620 colon
# UACC-257 melanoma = tested on: UACC-257 melanoma
SMILES,TGI (A498 renal),TGI (A549 NSCLC),TGI (CCRF-CEM leukemia),TGI (HCT-15 colon),TGI (IGROV1 ovarian),TGI (M14 melanoma),TGI (NCI-H23 lung),TGI (OVCAR-8 ovarian),TGI (SF-539 CNS),TGI (SNB-75 CNS),TGI (SR leukemia),TGI (SW-620 colon),TGI (UACC-257 melanoma)
c1cc2nnc1SCCCSc1ccc(nn1)SCCCS2,> 100 µM,> 100 µM,> 100 µM,> 100 µM,> 81.3 µM,> 57.6 µM,> 100 µM,> 100 µM,> 93.9 µM,> 56.6 µM,> 100 µM,> 100 µM,> 71.6 µM
C=C1CC(c2ccc(OCCCN3C(=O)c4ccccc4C3=O)cc2)OC1=O (stereo not drawn),3.56 µM,39.2 µM,4.56 µM,6.84 µM,4.57 µM,9.09 µM,9.34 µM,9.35 µM,0.827 µM,23.7 µM,8.57 µM,2.99 µM,7.55 µM
Fc1ccc(N2C(=S)SC(=Nc3ccccc3)C2=Nc2ccccc2)cc1,> 100 µM,> 100 µM,> 46.4 µM,> 100 µM,> 100 µM,> 100 µM,> 100 µM,> 100 µM,> 100 µM,> 100 µM,> 100 µM,> 100 µM,> 100 µM
COc1ccc(OC)c(N(CN2C(=O)CCC2C(=O)O)C(C)=O)c1 (stereo not drawn),> 100 µM,> 100 µM,> 100 µM,> 100 µM,> 100 µM,> 100 µM,> 100 µM,> 100 µM,> 100 µM,> 100 µM,> 100 µM,> 100 µM,> 100 µM
O=C(c1ccccc1)N(C(=O)c1ccccc1)c1nc(SCc2ccccc2)ns1,73.9 µM,> 100 µM,65.3 µM,65.3 µM,> 100 µM,86.1 µM,57.3 µM,> 100 µM,44.1 µM,58.1 µM,57.9 µM,> 100 µM,60.5 µM
COC(=O)c1cc2c(c3c1CC(Cc1ccccc1)C3=O)CCC2 (stereo not drawn),> 100 µM,> 100 µM,> 100 µM,> 100 µM,> 100 µM,> 100 µM,> 100 µM,> 100 µM,> 100 µM,> 100 µM,> 100 µM,> 100 µM,> 100 µM
Cc1cc(N(CCC#N)CCC#N)ccc1/C(N=Nc1cccc(Cl)c1)=N/NC(=O)c1cc(Cl)ccc1O,53.1 µM,75.7 µM,37.2 µM,24.4 µM,10.2 µM,49.6 µM,31.1 µM,49.2 µM,> 100 µM,42.1 µM,> 100 µM,> 100 µM,31.2 µM
[N-]=[N+]=NI1OC(=O)c2ccccc21,> 100 µM,> 100 µM,> 100 µM,> 100 µM,> 100 µM,> 100 µM,> 100 µM,> 100 µM,> 100 µM,> 100 µM,> 100 µM,> 100 µM,> 100 µM
COc1ccc(OC)c(CNc2ccc(C(=O)O)cc2)c1,> 100 µM,> 100 µM,> 100 µM,> 100 µM,> 100 µM,> 100 µM,> 100 µM,> 100 µM,> 100 µM,> 100 µM,> 100 µM,> 100 µM,> 100 µM
Clc1cc(Cl)cc(N=C/C=C/Nc2cc(Cl)cc(Cl)c2)c1,57.3 µM,43.1 µM,60.9 µM,30.6 µM,55.8 µM,47.6 µM,30.6 µM,42.5 µM,58.9 µM,39.3 µM,86.4 µM,37.6 µM,> 100 µM
CCOP1(=O)CC(C)=C(Cl)C(O)C1 (stereo not drawn),> 100 µM,> 100 µM,> 100 µM,> 100 µM,> 100 µM,> 100 µM,> 100 µM,> 100 µM,> 100 µM,> 100 µM,> 100 µM,> 100 µM,> 100 µM
O=C1C(Cl)C2(CC(/C=C/c3ccccc3)=NN2c2cccc(S(=O)(=O)O)c2)N1c1nc2ccccc2s1 (stereo not drawn),38.8 µM,30.2 µM,32.4 µM,38.8 µM,21.1 µM,36 µM,28.1 µM,25 µM,35.3 µM,30.3 µM,30 µM,93.6 µM,54.4 µM
NC1CC(=O)c2c1sc(Cl)c2Cl (stereo not drawn),> 100 µM,> 100 µM,> 100 µM,> 100 µM,> 100 µM,> 100 µM,,> 100 µM,> 100 µM,> 100 µM,> 100 µM,> 100 µM,> 100 µM
O=c1[nH]c(=S)nc2nc3c4ccc[nH]c4c4ccccc4c3nc12,> 100 µM,> 100 µM,> 100 µM,> 100 µM,> 100 µM,> 100 µM,> 100 µM,> 100 µM,> 100 µM,> 100 µM,> 100 µM,> 100 µM,> 100 µM
CC(=O)NC1C(OCc2ccccc2)OC(CO)C(O)C1OC(C)C(=O)NC(C)C(=O)NC(CCC(=O)NCCCCNc1c2ccccc2nc2cccc([N+](=O)[O-])c12)C(N)=O (stereo not drawn),0.297 µM,0.838 µM,0.578 µM,0.0495 µM,0.612 µM,12.5 µM,0.221 µM,0.166 µM,0.264 µM,0.569 µM,0.0539 µM,0.0785 µM,0.509 µM
CCOC(=O)/C=C/CCO[Si](C)(C)C(C)(C)C,> 100 µM,> 100 µM,> 100 µM,> 100 µM,> 100 µM,,> 100 µM,> 100 µM,> 100 µM,> 100 µM,> 100 µM,> 100 µM,> 100 µM
CCCCCCCC1(N=[N+]=[N-])C(=O)Nc2ccccc2C1=O (stereo not drawn),14 µM,28 µM,95.4 µM,47.3 µM,25.6 µM,33.2 µM,40.5 µM,,29.6 µM,27.1 µM,90 µM,26.4 µM,41.2 µM
